In general, IC50 refers to the midpoint of a concentration-inhibition curve.

Here are results for 20 compounds from patent US20240199649A1 (Biosplice Therapeutics, Inc., priority 2022, published 2024).

The target in this experiment is recombinant DYRK1A kinase (Homo sapiens (Human), UniProt Q13627). The experiment is described as follows: DYRK1A kinase assay (Ser/Thr 18 peptide Z-lyte FRET assay). The format is biochemical. The settings on record: DYRK1A 0.25 μg/mL, ATP 15 μM, Ser/Thr peptide 18 4 μM; one hour at room temperature; 11-point dose-response, duplicate. As to the method:
Representative compounds were screened using the assay procedure for DYRK1A kinase activity as described below.
Each compound was dissolved in DMSO as a 10 mM stock and used to prepare compound source plates.
This is a non-radioactive assay using fluorescence resonance energy transfer (FRET) between coumarin and fluorescein to detect kinase activity which is represented as a ratio of coumarin emission/fluorescein emission.
The mixture was allowed to incubate with the representative compounds for one hour at room temperature. All reactions were performed in duplicate. Unphosphorylated (“0% Control”) and phosphorylated (“100% control”) forms of Ser/Thr 18 served as control reactions. Additionally, an 11-point dose-response curve of Staurosporine (1 uM top) was run to serve as a positive compound control.
After incubation, Development Reagent A was diluted in Development Buffer then added to the reaction and allowed to further incubate for one hour at room temperature.
Dose-response curves were generated, and inhibitory concentration (IC50) values were calculated using non-linear regression curve fit in the Dotmatics' Studies Software (Bishops Stortford, UK).
In the case of `C[C@]1(O)CC[C@H](Nc2nc(N)c3c(-c4ccn5nccc5c4)ccn3n2)CC1` [Compound 1, trans-4-((4-Amino-5-(pyrazolo[1,5-a]pyridin-5-yl)pyrrolo[2,1-f][1,2,4]triazin-2-yl)amino)-1-methylcyclohexan-1-ol], the IC50 was determined as 172 nM. The figure for `CNc1nc(N[C@H]2CC[C@](C)(O)CC2)nn2ccc(-c3ccn4nccc4n3)c12` [Compound 20, trans-1-Methyl-4-((4-(methylamino)-5-(pyrazolo[1,5-a]pyrimidin-5-yl)pyrrolo[2,1-f][1,2,4]triazin-2-yl)amino)cyclohexan-1-ol] is 2.5 nM; for `CNc1nc(N[C@@H]2CCN(C)CC2(F)F)nn2ccc(-c3ccn4nccc4n3)c12` [Compound 44, (R)—N^2-(3,3-Difluoro-1-methylpiperidin-4-yl)-N^4-methyl-5-(pyrazolo[1,5-a]pyrimidin-5-yl)pyrrolo[2,1-f][1,2,4]triazine-2,4-diamine] it is 5.8 nM; for `CNc1nc(N[C@H]2CC[C@](C)(O)CC2)nn2ccc(-c3ccc4nccn4c3)c12` [Compound 58, trans-4-((5-(Imidazo[1,2-a]pyridin-6-yl)-4-(methylamino)pyrrolo[2,1-f][1,2,4]triazin-2-yl)amino)-1-methylcyclohexan-1-ol] it is 170 nM. As for `CNc1nc(NC2CCN(C3COC3)CC2)nn2ccc(-c3cnc4nc(C)n(C(C)C)c4c3)c12` [Compound 114], the IC50 worked out at 744 nM. The value for `CNc1nc(N[C@H]2CC[C@](C)(O)CC2)nn2ccc(-c3ccc4nc(C)n(C(C)C)c4n3)c12` [Compound 132, trans-4-((5-(3-Isopropyl-2-methyl-3H-imidazo[4,5-b]pyridin-5-yl)-4-(methylamino)pyrrolo[2,1-f][1,2,4]triazin-2-yl)amino)-1-methylcyclohexan-1-ol] was 1.7 nM; that for `CNc1nc(N[C@H]2C[C@](C)(O)C2)nn2ccc(-c3cnc4nc(C)n(CC(F)F)c4c3)c12` [Compound 170, trans-3-((5-(1-(2,2-Difluoroethyl)-2-methyl-1H-imidazo[4,5-b]pyridin-6-yl)-4-(methylamino)pyrrolo[2,1-f][1,2,4]triazin-2-yl)amino)-1-methylcyclobutan-1-ol] was 4.8 nM; that for `CNc1nc(N[C@H]2CC[C@](C)(O)CC2)nn2ccc(-c3cnc4nc(C)n(CC(F)F)c4c3)c12` [Compound 171, trans-4-((5-(1-(2,2-Difluoroethyl)-2-methyl-1H-imidazo[4,5-b]pyridin-6-yl)-4-(methylamino)pyrrolo[2,1-f][1,2,4]triazin-2-yl)amino)-1-methylcyclohexan-1-ol] was 8 nM.

With `CNc1nc(N[C@H]2C[C@@H](OCCO)C2)nn2ccc(-c3ccc4nc(C)n(CC(F)F)c4n3)c12` [Compound 172, 2-(cis-3-((5-(3-(2,2-Difluoroethyl)-2-methyl-3H-imidazo[4,5-b]pyridin-5-yl)-4-(methylamino)pyrrolo[2,1-f][1,2,4]triazin-2-yl)amino)cyclobutoxy)ethan-1-ol], the IC50 stood at 0.9 nM. The value for `CNc1nc(N[C@H]2C[C@@](C)(O)C2)nn2ccc(-c3ccc4nc(C)n(CC(F)F)c4n3)c12` [Compound 174, Cis-3-((5-(3-(2,2-Difluoroethyl)-2-methyl-3H-imidazo[4,5-b]pyridin-5-yl)-4-(methylamino)pyrrolo[2,1-f][1,2,4]triazin-2-yl)amino)-1-methylcyclobutan-1-ol] was 1.7 nM. The figure for `CNc1nc(NC2CCC(F)(F)CC2)nn2ccc(-c3ccc4nc(C)n(CC(F)F)c4n3)c12` [Compound 182, N^2-(4,4-Difluorocyclohexyl)-5-(3-(2,2-difluoroethyl)-2-methyl-3H-imidazo[4,5-b]pyridin-5-yl)-N^4-methylpyrrolo[2,1-f][1,2,4]triazine-2,4-diamine] is 12 nM; for `CNc1nc(N[C@H]2CC[C@@H](OC)CC2)nn2ccc(-c3ccc4nc(C)n(CC(F)F)c4n3)c12` [Compound 183, 5-(3-(2,2-Difluoroethyl)-2-methyl-3H-imidazo[4,5-b]pyridin-5-yl)-N^2-(cis-4-methoxycyclohexyl)-N^4-methylpyrrolo[2,1-f][1,2,4]triazine-2,4-diamine] it is 4.1 nM. The figure for `CNc1nc(N[C@H]2CC[C@@H](OCCO)CC2)nn2ccc(-c3ccc4nc(C)n(CC(F)F)c4n3)c12` [Compound 184, 2-((cis-4-((5-(3-(2,2-Difluoroethyl)-2-methyl-3H-imidazo[4,5-b]pyridin-5-yl)-4-(methylamino)pyrrolo[2,1-f][1,2,4]triazin-2-yl)amino)cyclohexyl)oxy)ethan-1-ol] is 0.5 nM; for `CNc1nc(N[C@H]2CC[C@@H](OCCOC)CC2)nn2ccc(-c3ccc4nc(C)n(CC(F)F)c4n3)c12` [Compound 185, 5-(3-(2,2-Difluoroethyl)-2-methyl-3H-imidazo[4,5-b]pyridin-5-yl)-N^2-(cis-4-(2-methoxyethoxy)cyclohexyl)-N^4-methylpyrrolo[2,1-f][1,2,4]triazine-2,4-diamine] it is 2.4 nM. Consider `CNc1nc(N[C@H]2CC[C@@H](NC(C)=O)CC2)nn2ccc(-c3ccc4nc(C)n(CC(F)F)c4n3)c12` [Compound 186, N-(cis-4-((5-(3-(2,2-difluoroethyl)-2-methyl-3H-imidazo[4,5-b]pyridin-5-yl)-4-(methylamino)pyrrolo[2,1-f][1,2,4]triazin-2-yl)amino)cyclohexyl)acetamide], for which the IC50 stood at 1.5 nM.

With `CNc1nc(N[C@H]2CC[C@H](NC(C)=O)CC2)nn2ccc(-c3ccc4nc(C)n(CC(F)F)c4n3)c12` [Compound 187, N-(trans-4-((5-(3-(2,2-Difluoroethyl)-2-methyl-3H-imidazo[4,5-b]pyridin-5-yl)-4-(methylamino)pyrrolo[2,1-f][1,2,4]triazin-2-yl)amino)cyclohexyl)acetamide], the IC50 was found to be 1.1 nM. As for `CNc1nc(N[C@H]2CC[C@@](C)(O)CC2)nn2ccc(-c3ccc4nc(C)n(CC(F)F)c4n3)c12` [Compound 188, Cis-4-((5-(3-(2,2-Difluoroethyl)-2-methyl-3H-imidazo[4,5-b]pyridin-5-yl)-4-(methylamino)pyrrolo[2,1-f][1,2,4]triazin-2-yl)amino)-1-methylcyclohexan-1-ol], the IC50 is 2.2 nM. The figure for `CNc1nc(N[C@H]2CC[C@](C)(O)CC2)nn2ccc(-c3ccc4nc(C)n(CC(F)F)c4n3)c12` [Compound 189, trans-4-((5-(3-(2,2-Difluoroethyl)-2-methyl-3H-imidazo[4,5-b]pyridin-5-yl)-4-(methylamino)pyrrolo[2,1-f][1,2,4]triazin-2-yl)amino)-1-methylcyclohexan-1-ol] is 1.3 nM. The value for `CNc1nc(NC23CC4CC(CC(C4)C2)C3)nn2ccc(-c3ccc4nc(C)n(CC(F)F)c4n3)c12` [Compound 196, N^2-(Adamantan-1-yl)-5-(3-(2,2-difluoroethyl)-2-methyl-3H-imidazo[4,5-b]pyridin-5-yl)-N^4-methylpyrrolo[2,1-f][1,2,4]triazine-2,4-diamine] was 595 nM; that for `CNc1nc(N[C@H]2CN(C)C[C@H]2F)nn2ccc(-c3ccc4nc(C)n(CC(F)F)c4n3)c12` [Compound 197, 5-(3-(2,2-Difluoroethyl)-2-methyl-3H-imidazo[4,5-b]pyridin-5-yl)-N^2-((3S,4R)-4-fluoro-1-methylpyrrolidin-3-yl)-N^4-methylpyrrolo[2,1-f][1,2,4]triazine-2,4-diamine] was 2 nM.
